The text below walks through data of patent publication US7601739B2, “Compounds having antiestrogenic and tissue selective estrogenic properties, and compounds with anti-androgenic properties for treatment of prostate cancer and androgen receptor dependent diseases” (Virgina Commonwealth University, priority 2006, dated 2009).

The target in one test is T1, hERα (Homo sapiens, UniProt P03372).
T1 construct: mammalian expression plasmid containing full length human ER cDNA, pCMV-hER; expressed in transfected cells; host or cells: MCF-7 human breast cancer cells
T1 sequence (P03372 1-595): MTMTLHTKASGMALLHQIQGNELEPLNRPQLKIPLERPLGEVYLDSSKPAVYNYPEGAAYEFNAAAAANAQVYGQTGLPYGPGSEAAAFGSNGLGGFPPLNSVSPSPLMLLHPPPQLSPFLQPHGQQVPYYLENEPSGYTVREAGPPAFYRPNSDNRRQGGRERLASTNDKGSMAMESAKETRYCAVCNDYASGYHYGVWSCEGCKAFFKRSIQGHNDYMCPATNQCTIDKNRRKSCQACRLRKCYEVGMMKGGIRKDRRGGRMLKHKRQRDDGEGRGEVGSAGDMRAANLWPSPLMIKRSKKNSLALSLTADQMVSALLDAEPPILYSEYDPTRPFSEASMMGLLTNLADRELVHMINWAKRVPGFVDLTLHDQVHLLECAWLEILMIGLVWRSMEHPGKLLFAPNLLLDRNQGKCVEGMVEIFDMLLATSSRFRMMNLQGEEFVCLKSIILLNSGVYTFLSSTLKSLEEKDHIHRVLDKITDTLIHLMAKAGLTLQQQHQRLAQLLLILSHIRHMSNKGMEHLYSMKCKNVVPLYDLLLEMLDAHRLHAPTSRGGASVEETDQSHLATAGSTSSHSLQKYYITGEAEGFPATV
The test can be described thus: Transient transfection reporter assay for hERα in MCF-7 cells. In kind it is cell-based. On the set-up: Relative Estrogenic Activity: dose or concentration left out as unconfirmed. As to conditions: for Relative Estrogenic Activity: MCF-7 cells transfected with hERα, DMSO set as 1; for estrogenic effect: MCF-7 cells, hERα, compared with DMSO and tamoxifen; for antiestrogenic / inhibition activity: against 1 nM estrogen; for Relative Antiestrogenic Activity at 2.5 μM: with 1 nM estradiol, 1 nM E2 used as reference (1). As for the experimental part:
For the transient transfection reporter assays, the cells were plated in triplicate in 12-well plates at a density of 300000 cells/well in the phenol red-free DMEM (GIBCO/BRL, Grand Island, N.Y.) supplemented with 10% charcoal-stripped fetal bovine serum (Hyclone, Logan, Utah), Penicillin (100 unit/ml)/Streptomycin ([…]), 2 mML-glutamine and 1 mM sodium Pyruvate. 24 hrs later, the cells were transfected with three plasmids by using Superfect transfection kit (Qiagen, Valencia, Calif.). For the detection of hER activity, cells were transfected with 2 g hER expression plasmid (pCMV-ER ), 6 g luciferase reporter plasmid containing estrogen receptor response element (PGL-TATA-Luc), and 600 ng normalization control, β-galactosidase reporter plasmid (pCMV ). For the detection of hER activity, cells were transfected with 3 ug hER expression plasmid (pcDNA3.1-hER), 6 g luciferase reporter plasmid containing estrogen receptor response element (PGL-TATA-Luc), and 600 ng pCMV. For determining the influence of ER's major coactivator in breast, AIB 1, 2 g pcDNA3.1-AIB1 was added into the transfection plasmid solution mentioned previously.
The transfected cells were rinsed with PBS and treated with various concentrations of test molecules and one […] (vehicle, DMSO or methanol) in phenol red-free culture medium. After incubation for further 24 hrs, the cells were washed with PBS and lysed with lysis buffer (Pierce, Rockford, Ill.). The lysate was used to determine the luciferase activity for ER's activity and the β-galactosidase activity for the normalization of transfection efficiency.
For the luciferase activity assay, 20 μl of lysate and 100 μl luciferase assay buffer (Promega, Madison, Wis.) were added into a well of 96-well plate. The luminescence was detected by using luminescence microplate reader, LumiCount (Packard, Boston, Mass.). For the β-galactosidase activity assay, […] β-galactosidase assay buffer (Clontech, Palo Alto, Calif.) were added into a well of 96-well plate. The β-galactosidase activity was measured as luminescence strength by using luminescence microplate reader, LumiCount (Packard, Boston, Mass.). The normalized reporter activity was calculated by the luciferase activity divided by that of β-galactosidase.
The transient transfection reporter assay was used to determine the estrogenic or antiestrogenic activity of tested compounds in employed human breast cancer cells, MCF-7 cells that are cotransfected with hERα expression and reporter plasmids. […] […] The estrogenic (antiestrogenic) activity was determined by dividing the luciferase activity by the β-galactosidase activity. To determine the influence of estrogen receptor's major coactivator in breast cancer, AIB1, for the compounds' estrogenic activity, the expression vector of AIB1 was additionally cotransfected with the plasmids mentioned above.
In general terms: Reporter assays use an easily measured gene product as a stand-in for the process of interest.

The test system of another test is MCF-7 cells. The test can be described thus: hERα positive breast cancer cell proliferation assay. In kind it is cell-based, human. The note with it: for activity at 5 µM: Homo sapiens, MCF7, 72 h, MCF-7 cells, DMSO = 1, read-out: Relative Cancer Cell Proliferation Effects at 5 μM.

Regarding `CCCCNC(=O)CCCCCCCCCCOCC1Cc2ccccc2CN1C(=O)c1cccc(O)c1` (centres unmarked) [Compound 6], at hERα, the “Relative Estrogenic Activity” value is 1.03, the “estrogenic effect” value is “do not exert any estrogenic effects”, the “antiestrogenic / inhibition activity” value was “strongest inhibition activity” and the “Relative Antiestrogenic Activity at 2.5 μM” value worked out at 0.44. For the same compound, in the test on MCF-7 cells, the “inhibition effects against MCF-7 cell proliferation” value was “strongest inhibition effects” and the activity at 5 µM was found to be 62%. For the same compound, the “inhibition of MCF-7 cell proliferation” value in the test on MCF-7 cells (relative to DMSO) is on record as 38%.

For `CCCCNC(=O)CCCCCCCCCCOCC1Cc2ccccc2CN1C(=O)c1cccc(OC)c1` (centres unmarked) [Compound 4], on hERα, the “Relative Estrogenic Activity” value worked out at 0.78, the “estrogenic effect” value is “do not exert any estrogenic effects” and the “Relative Antiestrogenic Activity at 2.5 μM” value worked out at 0.79. In the test with MCF-7 cells, the “inhibition effects against MCF-7 cell proliferation” value is on record as “slightly lower inhibition effects than compound 6” and the activity at 5 µM turned out to be 70%.

As for `CCCCNC(=O)CCCCCCCCCCOCC1Cc2ccccc2CN1C(=O)c1ccc(O)cc1` (centres unmarked) [Compound 7], on hERα, the “Relative Estrogenic Activity” value is recorded as 2.05, the “estrogenic effect” value is “highest estrogenic effect”, the “antiestrogenic / inhibition activity” value is listed as “moderate antiestrogenic activity” and the “Relative Antiestrogenic Activity at 2.5 μM” value is given as 0.76. In addition, the activity at 5 µM with MCF-7 cells stood at 95%.
